Measured values from patent US20220162191A1, “SMALL MOLECULE MODULATORS OF IL-17” (LEO PHARMA A/S, priority 2019, published 2022).

These molecules were tested against T1, human IL-17AA (Homo sapiens, UniProt Q16552) (assay: IL-8 release assay in human epithelial keratinocytes adult (HEKa)). Settings: 3 ng/ml human IL-17AA + 10 ng/ml human TNFalpha, 68-72 h, IL-8 by HTRF, read-out: Rel EC50 L-8 release assay.
T1 construct: host or cells: HEK (human embryonic kidney) cells
T1 sequence (Q16552 24-155) 1: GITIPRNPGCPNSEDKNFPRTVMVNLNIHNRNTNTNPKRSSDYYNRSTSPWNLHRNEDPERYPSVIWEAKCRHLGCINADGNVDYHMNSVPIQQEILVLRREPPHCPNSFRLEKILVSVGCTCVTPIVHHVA
T1 sequence (Q16552 24-155) 2: T1 sequence (Q16552 24-155) 1
Type: cell-based
Procedure: Example: IL-8 release assay in human epithelial keratinocytes adult (HEKa) Keratinocytes were seeded at 3500 cells/well in 384-well ViewPlates (Perkin Elmer) in Epilife medium (Thermo Fisher) containing human keratinocyte growth supplement (HKGS) without hydrocortisone and incubated in a humid incubator at 37° C., 5% CO2, overnight. The following day growth medium was removed and 25 μl fresh Epilife 10 medium added. 75 nl test compound in 100% DMSO was added into each well reserved
for test compounds, by the use of acoustic pipetting. The remaining wells received an equal volume of DMSO only, as vehicle control, or terfenadine in DMSO, as a positive control for any cytotoxic compounds. Subsequently, another 25 μl Epilife medium was added to each well. Finally, wells containing test compounds and wells prepared to yield 15 maximum stimulation received 25 μl of 9 ng/ml recombinant, human embryonic kidney cell (HEK)-derived human IL-17AA+30 ng/ml human TNF-alpha, in Epilife medium. Wells prepared to define 100% inhibition of IL-17 effects received 25 μl of 30 ng/ml human TNF-alpha alone, in Epilife medium. Final concentrations were 3 ng/ml HEKhuman IL-17AA+10 ng/ml human TNFalpha (maximum stimulation) and 10 ng/ml 20 human TNFalpha alone (100% inhibition, Emax), respectively. Cells were incubated for 68-72 h in the incubator. IL-8 released from the cells was measured by the use of a commercial homogenous time-resolved fluorescence (HTRF) assay (CisBio). 2 μl cell culture supernatant was transferred to a 384-well Proxiplate. 5 μl HTRF reagent was added and the plates incubated sealed in the dark for 3-22 h at room temperature. Time resolved fluorescence was read at 665 vs 620 nm, with excitation at 320 nm, and IL-8 levels calculated as percent of controls. Reduction of the amount of secreted IL-8 indicates decreased IL-17 signaling. Concentration response curves were fitted by the use of a four-parameter logistic equation. Relative IC50 and Emax were reported from 5 curves showing acceptable fit (r2>0.9). Cytotoxicity was measured in the cell-containing
Compounds of the present invention were tested in the IL-8 release assay in human epithelial keratinocytes.

| SMILES | EC50 [nM] |
| --- | --- |
| CC(C)n1cc(-c2ccc3c(c2)[C@H]([C@H](NC(=O)c2ccnn2C)C(=O)Nc2ccc(-c4cncn4C)cc2)CC3)ccc1=O [Example 3, N-[(1S)-1-[(1R)-6-(1-isopropyl-6-oxo-3-pyridyl)indan-1-yl]-2-[4-(3-methylimidazol-4-yl)anilino]-2-oxo-ethyl]-2-methyl-pyrazole-3-carboxamide] | 100 to 1000 |
| Cc1n[nH]c(C)c1-c1ccc(NC(=O)[C@@H](NC(=O)c2ccnn2C)[C@@H]2CCc3ccc(-c4cnn(C(C)(C)C)c4)cc32)cc1 [Example 4, N-[(1S)-1-[(1R)-6-(1-tert-butylpyrazol-4-yl)indan-1-yl]-2-[4-(3,5-dimethyl-1H-pyrazol-4-yl)anilino]-2-oxo-ethyl]-2-methyl-pyrazole-3-carboxamide] | < 100 |
| Cc1n[nH]c(C)c1-c1ccc(NC(=O)[C@@H](NC(=O)c2ccnn2C)[C@@H]2CCc3ccc(-c4cnn(C5CCC5)c4)cc32)cc1 [Example 5, N-[(1S)-1-[(1R)-6-(1-cyclobutylpyrazol-4-yl)indan-1-yl]-2-[4-(3,5-dimethyl-1H-pyrazol-4-yl)anilino]-2-oxo-ethyl]-2-methyl-pyrazole-3-carboxamide] | < 100 |
| Cc1n[nH]c(C)c1-c1ccc(NC(=O)[C@@H](NC(=O)C2(F)CC2)[C@@H]2CCc3ccc(-c4ccc(=O)n(C(C)C)c4)cc32)cc1 [Example 6, N-[(1S)-2-[4-(3,5-dimethyl-1H-pyrazol-4-yl)anilino]-1-[(1R)-6-(1-isopropyl-6-oxo-3-pyridyl)indan-1-yl]-2-oxo-ethyl]-1-fluoro-cyclopropanecarboxamide] | 100 to 1000 |
| Cc1n[nH]c(C)c1-c1ccc(NC(=O)[C@@H](NC(=O)C2(F)CC2)[C@@H]2CCc3ccc(-c4ccc(=O)n(C(C)C)c4)cc32)cc1 [Example 7, N-[(1S)-2-[4-(3,5-dimethyl-1H-pyrazol-4-yl)anilino]-1-[(1R)-6-(1-isopropyl-6-oxo-3-pyridyl)indan-1-yl]-2-oxo-ethyl]-1-fluoro-cyclopropanecarboxamide] | < 100 |
| Cc1n[nH]c(C)c1-c1ccc(NC(=O)[C@@H](NC(=O)c2ccnn2C)[C@@H]2CCc3ccc(-c4cnn(C5CC5)c4)cc32)cc1 [Example 8, N-[(1S)-1-[(1R)-6-(1-cyclopropylpyrazol-4-yl)indan-1-yl]-2-[4-(3,5-dimethyl-1H-pyrazol-4-yl)anilino]-2-oxo-ethyl]-2-methyl-pyrazole-3-carboxamide] | < 100 |
| Cc1n[nH]c(C)c1-c1ccc(NC(=O)[C@@H](NC(=O)C2(F)CC2)[C@@H]2CCc3ccc(-c4ccnc(N5CCNCC5)c4)cc32)cc1 [Example 9, N-[(1S)-2-[4-(3,5-dimethyl-1H-pyrazol-4-yl)anilino]-2-oxo-1-[(1R)-6-(2-piperazin-1-yl-4-pyridyl)indan-1-yl]ethyl]-1-fluoro-cyclopropanecarboxamide] | < 100 |
| Cc1n[nH]c(C)c1-c1ccc(NC(=O)[C@@H](NC(=O)c2ccnn2C)[C@@H]2CCc3ccc(-c4ccc5c(c4)CN(C)C5)cc32)cc1 [Example 10, N-[(1S)-2-[4-(3,5-dimethyl-1H-pyrazol-4-yl)anilino]-1-[(1R)-6-(2-methylisoindolin-5-yl)indan-1-yl]-2-oxo-ethyl]-2-methyl-pyrazole-3-carboxamide] | < 100 |
| Cc1n[nH]c(C)c1-c1ccc(NC(=O)[C@@H](NC(=O)c2ccnn2C)[C@@H]2CCc3ccc(-c4cnn(C(C)(C)CO)c4)cc32)cc1 [Example 11, N-[(1S)-2-[4-(3,5-dimethyl-1H-pyrazol-4-yl)anilino]-1-[(1R)-6-[1-(2-hydroxy-1,1-dimethyl-ethyl]pyrazol-4-yl]indan-1-yl]-2-oxo-ethyl]-2-methyl-pyrazole-3-carboxamide] | < 100 |
| Cc1n[nH]c(C)c1-c1ccc(NC(=O)[C@@H](NC(=O)C2(F)CC2)[C@@H]2CCc3ccc(-c4cnn(C(C)(C)CO)c4)cc32)cc1 [Example 12, N-[(1S)-2-[4-(3,5-dimethyl-1H-pyrazol-4-yl)anilino]-1-[(1R)-6-[1-(2-hydroxy-1,1-dimethyl-ethyl)pyrazol-4-yl]indan-1-yl]-2-oxo-ethyl]-1-fluoro-cyclopropanecarboxamide] | < 100 |
| Cc1n[nH]c(C)c1-c1ccc(NC(=O)[C@@H](NC(=O)c2ccnn2C)[C@@H]2CCc3ccc(-c4cnn(CC(C)(C)O)c4)cc32)cc1 [Example 13, N-[(1S)-2-[4-(3,5-dimethyl-1H-pyrazol-4-yl)anilino]-1-[(1R)-6-[1-(2-hydroxy-2-methyl-propyl)pyrazol-4-yl]indan-1-yl]-2-oxo-ethyl]-2-methyl-pyrazole-3-carboxamide] | < 100 |
| Cc1n[nH]c(C)c1-c1ccc(NC(=O)[C@@H](NC(=O)c2ccnn2C)[C@@H]2CCc3ccc(-c4ccnc(C(C)C)c4)cc32)cc1 [Example 14, N-[(1S)-2-[4-(3,5-dimethyl-1H-pyrazol-4-yl)anilino]-1-[(1R)-6-(2-isopropyl-4-pyridyl)indan-1-yl]-2-oxo-ethyl]-2-methyl-pyrazole-3-carboxamide] | < 100 |
| Cc1n[nH]c(C)c1-c1ccc(NC(=O)[C@@H](NC(=O)c2ccnn2C)[C@@H]2CCc3ccc(-c4ccc5c(c4)CCN(C)C5)cc32)cc1 [Example 15, N-[(1S)-2-[4-(3,5-dimethyl-1H-pyrazol-4-yl)anilino]-1-[(1R)-6-(2-methyl-3,4-dihydro-1H-isoquinolin-6-yl)indan-1-yl]-2-oxo-ethyl]-2-methyl-pyrazole-3-carboxamide] | < 100 |
| Cc1n[nH]c(C)c1-c1ccc(NC(=O)[C@@H](NC(=O)c2ccnn2C)[C@@H]2CCc3ccc(-c4ccnc(C(C)(C)O)c4)cc32)cc1 [Example 16, N-[(1S)-2-[4-(3,5-dimethyl-1H-pyrazol-4-yl)anilino]-1-[(1R)-6-[2-(1-hydroxy-1-methyl-ethyl)-4-pyridyl]indan-1-yl]-2-oxo-ethyl]-2-methyl-pyrazole-3-carboxamide] | < 100 |
| Cc1n[nH]c(C)c1-c1ccc(NC(=O)[C@@H](NC(=O)c2ccnn2C)[C@@H]2CCc3ccc(-c4ccc5c(c4)CCNC5)cc32)cc1 [Example 17, N-[(1S)-2-[4-(3,5-dimethyl-1H-pyrazol-4-yl)anilino]-2-oxo-1-[(1R)-6-(1,2,3,4-tetrahydroisoquinolin-6-yl)indan-1-yl]ethyl]-2-methyl-pyrazole-3-carboxamide] | < 100 |
| Cc1cc(-c2ccc3c(c2)[C@H]([C@H](NC(=O)c2ccnn2C)C(=O)Nc2ccc(-c4c(C)n[nH]c4C)cc2)CC3)ccc1CN1CCOCC1 [Example 18, N-[(1S)-2-[4-(3,5-dimethyl-1H-pyrazol-4-yl)anilino]-1-[(1R)-6-[3-methyl-4-(morpholinomethyl)phenyl]indan-1-yl]-2-oxo-ethyl]-2-methyl-pyrazole-3-carboxamide] | < 100 |
| Cc1n[nH]c(C)c1-c1ccc(NC(=O)[C@@H](NC(=O)c2ccnn2C)[C@@H]2CCc3ccc(-c4ccc(CN5CCCC5)cc4)cc32)cc1 [Example 19, N-[(1S)-2-[4-(3,5-dimethyl-1H-pyrazol-4-yl)anilino]-2-oxo-1-[(1R)-6-[4-(pyrrolidin-1-ylmethyl)phenyl]indan-1-yl]ethyl]-2-methyl-pyrazole-3-carboxamide] | 100 to 1000 |
| Cc1n[nH]c(C)c1-c1ccc(NC(=O)[C@@H](NC(=O)c2ccnn2C)[C@@H]2CCc3ccc(-c4ccc(CN5CCCCC5)cc4)cc32)cc1 [Example 20, N-[(1S)-2-[4-(3,5-dimethyl-1H-pyrazol-4-yl)anilino]-2-oxo-1-[(1R)-6-[4-(1-piperidylmethyl)phenyl]indan-1-yl]ethyl]-2-methyl-pyrazole-3-carboxamide] | 100 to 1000 |
| Cc1n[nH]c(C)c1-c1ccc(NC(=O)[C@@H](NC(=O)c2ccnn2C)[C@@H]2CCc3ccc(-c4ccc(CN5CCC5)cc4)cc32)cc1 [Example 21, N-[(1S)-1-[(1R)-6-[4-(azetidin-1-ylmethyl)phenyl]indan-1-yl]-2-[4-(3,5-dimethyl-1H-pyrazole-4-yl)anilino]-2-oxo-ethyl]-2-methyl-pyrazole-3-carboxamide] | < 100 |
| Cc1n[nH]c(C)c1-c1ccc(NC(=O)[C@@H](NC(=O)c2ccnn2C)[C@@H]2CCc3ccc(-c4cnn(C(C)(C)CN)c4)cc32)cc1 [Example 22, N-[(1S)-1-[(1R)-6-[1-(2-amino-1,1-dimethyl-ethyl)pyrazol-4-yl]indan-1-yl]-2-[4-(3,5-dimethyl-1H-pyrazol-4-yl)anilino]-2-oxo-ethyl]-2-methyl-pyrazole-3-carboxamide] | 100 to 1000 |
